Measurements reported in US20220125778A1 (priority 2019, published 2022).

Target: Purified bacterial β-glucuronidases (Purified GUS) (UniProt P05804)
Format: biochemical
Conditions: read-out: Purified GUS Orignial IC50

Sequence of Purified bacterial β-glucuronidases (Purified GUS) (P05804 whole entry): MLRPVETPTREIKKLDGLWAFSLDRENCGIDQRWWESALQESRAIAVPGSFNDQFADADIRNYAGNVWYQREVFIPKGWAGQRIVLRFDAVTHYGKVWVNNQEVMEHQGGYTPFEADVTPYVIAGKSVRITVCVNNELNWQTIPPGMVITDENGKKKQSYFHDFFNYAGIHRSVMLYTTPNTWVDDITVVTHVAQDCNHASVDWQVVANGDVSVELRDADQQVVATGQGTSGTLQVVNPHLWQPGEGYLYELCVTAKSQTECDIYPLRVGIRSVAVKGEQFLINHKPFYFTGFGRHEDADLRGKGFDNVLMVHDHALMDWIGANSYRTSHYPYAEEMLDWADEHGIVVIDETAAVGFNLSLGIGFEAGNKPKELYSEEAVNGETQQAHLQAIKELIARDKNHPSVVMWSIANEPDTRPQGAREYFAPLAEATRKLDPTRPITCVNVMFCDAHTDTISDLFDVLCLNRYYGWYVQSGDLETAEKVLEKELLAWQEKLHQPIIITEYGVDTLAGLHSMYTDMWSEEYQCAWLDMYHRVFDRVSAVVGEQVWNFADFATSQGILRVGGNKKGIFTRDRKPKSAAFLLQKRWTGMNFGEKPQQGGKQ

Compound | IC50 [nM]
Cc1cc(C)c2[nH]c(=O)c(CN(CCO)C(=O)Cc3ccccc3Br)cc2c1 [Ex. 4, 2-(2-bromophenyl)-N-[(6,8-dimethyl-2-oxo-1H-quinolin-3-yl)methyl]-N-(2-hydroxyethyl)acetamide] | 920
Cc1cc(C)c2[nH]c(=O)c(CN(CCO)C(=O)Cc3ccccc3Cl)cc2c1 [Ex. 8, 2-(2-chlorophenyl)-N-[(6,8-dimethyl-2-oxo-1H-quinolin-3-yl)methyl]-N-(2-hydroxyethyl)acetamide] | 570
COc1ccc(Br)c(CC(=O)N(CCO)Cc2cc3cc(C)cc(C)c3[nH]c2=O)c1 [Ex. 12, 2-(2-bromo-5-methoxy-phenyl)-N-[(6,8-dimethyl-2-oxo-1H-quinolin-3-yl)methyl]-N-(2-hydroxyethyl)acetamide] | 580
